Experimental data published in PMC8536644, “Enigmatic mechanism of the N-vinylpyrrolidone hepatocarcinogenicity in the rat” (Archives of Toxicology, 2021).
Several values for one entry are separate records, joined by “and”; a condition that tells them apart may be missing. Identical values can stand only once. Like-named read-outs stand apart in the source and are kept apart here.

Experiments:
[1] = Trypan Blue viability of the single cell suspension, lung; assay type: in vivo, rat; conditions: rat, inhaled
CYP2B = assay: PROD assay, lung microsomes; assay type: in vivo, rat; conditions: 20 ppm
Method: The alkoxyresorufin dealkylase (AROD) assays were based on the method by Burke et al. ([1994]).
The frozen livers and lungs of the NVP-treated male Wistar rats were thawed and washed with isotonic (0.9%) NaCl solution. The tissues were ice-cooled homogenized (1 g tissue: 3 mL 0.25 M saccharose in 1 mM disodium EDTA, pH 7.4) and centrifuged (9000 g, 15 min, 4 °C). The supernatant fraction was centrifuged (100 000 g, 60 min, 4 °C). The resulting supernatant fraction was used for the palmitoyl-CoA-oxidase assay described further down. The pellet was taken up in 150 mM aqueous KCl solution, recentrifuged (100 000 g, 60 min, 4 °C) and the pellet taken up in 1 mL/g liver or 0.5 mL/g lung resuspension buffer (1 mM GSH, 1 mM disodium EDTA, 4 mM MgCl2, 0.1 M KH2PO4, pH 7.5 and 4% glycerol). […]
For determination of the enzyme activities in triplicates, 85 µL master mix (100 mM TrisHCl pH 7.5, 2 mM 5’AMP, 5 mM G-6-P, 10 U G-6-P-DH, 10 mM Dicumarol, 10 mM MgCl2, either 2 µM EROD or 10 µM PROD or 5 µM BROD) was added to 10 µL microsomal fraction (1 mg protein/mL). […] The activity was determined by measuring the increase of the fluorescence (excitation at 550 nm, emission at 585 nm) due to resorufin formation compared with resorufin standards, which had been prepared by dissolving tenfold concentrated solutions in DMSO, which were then diluted tenfold in 100 mM TrisHCl pH 7.5.

rat liver cells = assay: Comet assay, conventional (no FPG), liver; conditions: for Hedgehogs/100 cells (mean ± SD) / TI (%) (mean ± SD) / TI (%), mean of medians from 2 slides: liver, no FPG, 5 days; for TI (%), mean of medians from 2 slides: individual animals
Method: (§1) Animals were anesthetized by 3.5% isoflurane (approximately 3 min, evaporator Dräger Vapor 19.3) and then killed by cervical dislocation. The liver was removed and its left lateral lobe used for the Comet assay. The remainder of the liver was washed in saline and then in two aliquots shock frozen in liquid nitrogen and stored at − 80 °C for later examinations. Subsequently the lung was removed from the dead animal. Its left lobe was used for the Comet assay and the remainder treated as described above for the liver. Thereafter the femora were removed for the preparation of the bone marrow.
(§2) The Comet assay was performed under alkaline conditions according to the principles described by Singh et al. ([1988]) and Tice et al. ([2000]).
(§3) Liver and lung cells were obtained essentially as described by Hartmann et al. ([2004]) and by the Japanese Center for the Validation of Alternative Methods (JaCVAM [2009]). Single cells were obtained within 1 h after killing of the animals in order to minimize DNA damage during the preparation.
(§4) The organ parts (see above) were washed in mincing buffer (50 mM EDTA in HBSS [without Ca^2+ and Mg^2+] pH 7.5: DMSO 9:1 (v/v), the latter added shortly before use, stored at 4 °C), cut into 1 to 2-mm pieces in ice-cold mincing buffer and transferred to a cell sieve with 70-µm pores. The viability of the cell suspension was evaluated by the Trypan Blue Assay (Strober [2001]).
(§5) 100 µL of the obtained cell suspension was mixed at 37 °C with 900 µL Low Melting Agarose (LMA) (0.7% agarose in phosphate-buffered saline [PBS] [Biochrom, Berlin, Germany] without Ca^2+ and Mg^2+). 100 µL of this mixture was transferred to a slide, which had been coated with Normal Melting Agarose (NMA) (0.6% agarose in PBS without Ca^2+ and Mg^2+). The slides were protected with a cover slip and the agarose was hardened at approximately 4 °C. The cover slips were then removed and the slides put over night at 4 °C into lysis buffer (2.5 M NaCl, 125 mM NaOH, 127 mM EDTA, 10 mM Tris/NaOH, pH 10; 1% Triton X-100 and 10% DMSO (v/v), the latter two added before use) in order to lyse the cell membrane, nuclear membrane and remove the histone.
(§6) The then following procedures were performed in a shaded room to minimize UV-mediated DNA damage during the procedures.
(§7) Remaining lysis buffer or FPG buffer was removed by immersing/washing the slides in PBS (without Ca^2+ and Mg^2+).
(§8) The slides were then placed into the electrophoresis chamber, which was cooled and protected from light. Slides were covered with electrophoresis buffer (0.3 M NaOH, 1 mM EDTA, pH > 13) carefully avoiding air bubbles. The DNA was allowed to unwind (20 min). Thereafter the electrophoresis was started (25 V, 300 mA, […], 30 min). The slides were then washed (2 times 5 min) in neutralization buffer (0.4 M Tris/HCl, pH 7.5), dehydrated and fixed in 100% ethanol (1 min), dried at room temperature overnight and stored at room temperature protected from dust.
(§9) Quantitative evaluation of the Comet assays was performed by fluorescence microscopy after DNA staining with ethidium bromide.

rat lung cells = assay: Comet assay, conventional (no FPG), lung; conditions: for Hedgehogs/100 cells (mean ± SD) / TI (%) (mean ± SD) / TI (%), mean of medians from 2 slides: lung, no FPG, 5 days; for TI (%), mean of medians from 2 slides: individual animals
Method: as §1, §2, §3, §4, §5, §6, §7, §8, §9

`C=CN1CCCC1=O` [NVP, N-vinylpyrrolidone] showed a viability at 5 days ([1]; both sexes, Wistar Crl:WI (Han), lung single cell suspension, lung cells, NVP-exposed, read-out: Viability, range of the individual animals) of 93 to 100%, a viability at 5 days ([1]; female, Wistar, lung, 5 ppm, lung, female, Comet with FPG (Table 11), 5 ppm inhalation, 5 days, individual animals, read-out: Individual viability (%)) of 99% and a viability at 5 days ([1]; female, Wistar, lung, 5 ppm, lung, female, Comet with FPG (Table 11), 5 ppm inhalation, 5 days, read-out: Viability (%) (mean ± SD)) of 99 ± 1%. For the same compound, the viability at 5 days ([1]; female, Wistar, lung, 5 ppm, lung, female, no FPG, 5 ppm inhalation, 5 days, individual animals, read-out: Individual viability (%)) was 99%, the viability at 5 days ([1]; female, Wistar, lung, 5 ppm, lung, female, no FPG, 5 ppm inhalation, 5 days, read-out: Viability (%) (mean ± SD)) was 99 ± 1% and the viability at 5 days ([1]; female, Wistar, lung, 10 ppm, lung, female, Comet with FPG (Table 11), 10 ppm inhalation, 5 days, individual animals, read-out: Individual viability (%)) was 98%. It also gave a viability at 5 days ([1]; female, Wistar, lung, 10 ppm, lung, female, Comet with FPG (Table 11), 10 ppm inhalation, 5 days, read-out: Viability (%) (mean ± SD)) of 98 ± 1%, a viability at 5 days ([1]; female, Wistar, lung, 10 ppm, lung, female, no FPG, 10 ppm inhalation, 5 days, individual animals, read-out: Individual viability (%)) of 98% and a viability at 5 days ([1]; female, Wistar, lung, 10 ppm, lung, female, no FPG, 10 ppm inhalation, 5 days, read-out: Viability (%) (mean ± SD)) of 98 ± 1%. It also gave a viability at 5 days ([1]; female, Wistar, lung, 20 ppm, lung, female, Comet with FPG (Table 11), 20 ppm inhalation, 5 days, individual animals, read-out: Individual viability (%)) of 98%, a viability at 5 days ([1]; female, Wistar, lung, 20 ppm, lung, female, Comet with FPG (Table 11), 20 ppm inhalation, 5 days, read-out: Viability (%) (mean ± SD)) of 98 ± 1% and a viability at 5 days ([1]; female, Wistar, lung, 20 ppm, lung, female, no FPG, 20 ppm inhalation, 5 days, individual animals, read-out: Individual viability (%)) of 98%. It also gave a viability at 5 days ([1]; female, Wistar, lung, 20 ppm, lung, female, no FPG, 20 ppm inhalation, 5 days, read-out: Viability (%) (mean ± SD)) of 98 ± 1%, a viability at 5 days ([1]; male, Wistar, lung, 5 ppm, lung, male, Comet with FPG (Table 10), 5 ppm inhalation, 5 days, individual animals, read-out: Individual viability (%)) of 97% and a viability at 5 days ([1]; male, Wistar, lung, 5 ppm, lung, male, Comet with FPG (Table 10), 5 ppm inhalation, 5 days, read-out: Viability (%) (mean ± SD)) of 98 ± 1%. The viability at 5 days ([1]; male, Wistar, lung, 5 ppm, lung, male, no FPG, 5 ppm inhalation, 5 days, individual animals, read-out: Individual viability (%)) was 97%, the viability at 5 days ([1]; male, Wistar, lung, 5 ppm, lung, male, no FPG, 5 ppm inhalation, 5 days, read-out: Viability (%) (mean ± SD)) was 98 ± 1% and the viability at 5 days ([1]; male, Wistar, lung, 10 ppm, lung, male, Comet with FPG (Table 10), 10 ppm inhalation, 5 days, individual animals, read-out: Individual viability (%)) was 99%. For the same compound, the viability at 5 days ([1]; male, Wistar, lung, 10 ppm, lung, male, Comet with FPG (Table 10), 10 ppm inhalation, 5 days, read-out: Viability (%) (mean ± SD)) was 98 ± 2%, the viability at 5 days ([1]; male, Wistar, lung, 10 ppm, lung, male, no FPG, 10 ppm inhalation, 5 days, individual animals, read-out: Individual viability (%)) was 99% and the viability at 5 days ([1]; male, Wistar, lung, 10 ppm, lung, male, no FPG, 10 ppm inhalation, 5 days, read-out: Viability (%) (mean ± SD)) was 98 ± 2%. It also gave a viability at 5 days ([1]; male, Wistar, lung, 20 ppm, lung, male, Comet with FPG (Table 10), 20 ppm inhalation, 5 days, individual animals, read-out: Individual viability (%)) of 100%, a viability at 5 days ([1]; male, Wistar, lung, 20 ppm, lung, male, Comet with FPG (Table 10), 20 ppm inhalation, 5 days, read-out: Viability (%) (mean ± SD)) of 99 ± 1% and a viability at 5 days ([1]; male, Wistar, lung, 20 ppm, lung, male, no FPG, 20 ppm inhalation, 5 days, individual animals, read-out: Individual viability (%)) of 100%. The viability at 5 days ([1]; male, Wistar, lung, 20 ppm, lung, male, no FPG, 20 ppm inhalation, 5 days, read-out: Viability (%) (mean ± SD)) was 99 ± 1%, the “PROD activity in lung microsomes vs vehicle control” value (CYP2B) was “not significantly different” and the Hedgehogs (rat liver cells; NVP-treated liver cells, with or without FPG) was 1–5%. The “Hedgehogs/100 cells (mean ± SD)” value (rat liver cells; female, 5 ppm inhalation) was 3 ± 3 /100 cells, the “TI (%) (mean ± SD)” value (rat liver cells; female, 5 ppm inhalation) was 1.0 ± 0.40% and the “TI (%), mean of medians from 2 slides” value (rat liver cells; female, 5 ppm inhalation) was 0.9% and 1.1% and 1.7% and 0.8% and 0.6%. The “Hedgehogs/100 cells (mean ± SD)” value (rat liver cells; female, 10 ppm inhalation) was 4 ± 4 /100 cells, the “TI (%) (mean ± SD)” value (rat liver cells; female, 10 ppm inhalation) was 0.9 ± 0.48% and the “TI (%), mean of medians from 2 slides” value (rat liver cells; female, 10 ppm inhalation) was 1.3% and 0.6% and 0.5% and 1.4% and 0.3%. For the same compound, the “Hedgehogs/100 cells (mean ± SD)” value (rat liver cells; female, 20 ppm inhalation) was 3 ± 2 /100 cells, the “TI (%) (mean ± SD)” value (rat liver cells; female, 20 ppm inhalation) was 0.7 ± 0.34% and the “Hedgehogs/100 cells (mean ± SD)” value (rat liver cells; male, 5 ppm inhalation) was 3 ± 2 /100 cells. For the same compound, the “TI (%) (mean ± SD)” value (rat liver cells; male, 5 ppm inhalation) was 0.9 ± 0.22%, the “TI (%), mean of medians from 2 slides” value (rat liver cells; male, 5 ppm inhalation) was 1.2% and 0.9% and 0.6% and 0.7% and 1.1% and the “Hedgehogs/100 cells (mean ± SD)” value (rat liver cells; male, 10 ppm inhalation) was 3 ± 1 /100 cells. The “TI (%) (mean ± SD)” value (rat liver cells; male, 10 ppm inhalation) was 1.0 ± 0.68%, the “TI (%), mean of medians from 2 slides” value (rat liver cells; male, 10 ppm inhalation) was 0.7% and 2.4% and 1.0% and 0.6% and the “Hedgehogs/100 cells (mean ± SD)” value (rat liver cells; male, 20 ppm inhalation) was 3 ± 1 /100 cells. The “TI (%) (mean ± SD)” value (rat liver cells; male, 20 ppm inhalation) was 0.7 ± 0.34%, the “TI (%), mean of medians from 2 slides” value (rat liver cells; male, 20 ppm inhalation) was 1.2% and 0.8% and 0.5% and 1.0% and 0.3% and the Hedgehogs (rat lung cells; NVP-treated lung cells, with or without FPG) was 1–7%. For the same compound, the “Hedgehogs/100 cells (mean ± SD)” value (rat lung cells; female, 5 ppm inhalation) was 2 ± 1 /100 cells, the “TI (%) (mean ± SD)” value (rat lung cells; female, 5 ppm inhalation) was 1.2 ± 0.34% and the “TI (%), mean of medians from 2 slides” value (rat lung cells; female, 5 ppm inhalation) was 0.7% and 1.2% and 1.5% and 1.6% and 1.3%. For the same compound, the “Hedgehogs/100 cells (mean ± SD)” value (rat lung cells; female, 10 ppm inhalation) was 2 ± 2 /100 cells, the “TI (%), mean of medians from 2 slides” value (rat lung cells; female, 10 ppm inhalation) was 0.4% and 0.9% and 0.5% and 0.6% and the “Hedgehogs/100 cells (mean ± SD)” value (rat lung cells; female, 20 ppm inhalation) was 2 ± 3 /100 cells. For the same compound, the “TI (%) (mean ± SD)” value (rat lung cells; female, 20 ppm inhalation) was 1.0 ± 0.32%, the “TI (%), mean of medians from 2 slides” value (rat lung cells; female, 20 ppm inhalation) was 0.7% and 0.9% and 1.2% and 1.0% and 1.6% and the “Hedgehogs/100 cells (mean ± SD)” value (rat lung cells; male, 5 ppm inhalation) was 4 ± 3 /100 cells. For the same compound, the “TI (%), mean of medians from 2 slides” value (rat lung cells; male, 5 ppm inhalation) was 1.8% and 0.6% and 0.7% and 0.8% and 1.9%, the “Hedgehogs/100 cells (mean ± SD)” value (rat lung cells; male, 10 ppm inhalation) was 7 ± 5 /100 cells and the “TI (%) (mean ± SD)” value (rat lung cells; male, 10 ppm inhalation) was 1.8 ± 1.94%. For the same compound, the “TI (%), mean of medians from 2 slides” value (rat lung cells; male, 10 ppm inhalation) was 5.7% and 1.3% and 1.2% and 0.7% and 1.0% and 1.1%, the “Hedgehogs/100 cells (mean ± SD)” value (rat lung cells; male, 20 ppm inhalation) was 3 ± 1 /100 cells and the “TI (%) (mean ± SD)” value (rat lung cells; male, 20 ppm inhalation) was 0.6 ± 0.28%. For the same compound, the “TI (%), mean of medians from 2 slides” value (rat lung cells; male, 20 ppm inhalation) was 0.4% and 0.9% and 0.6% and 0.3%.
